Assay results reported in PMC12434715 (Biochemical pharmacology, 2018).
Like-named read-outs stand apart in the source and are kept apart here.

Key:
SULT2A1 [1] = target: T1, SULT2A1 (Homo sapiens, UniProt Q06520)
T1 sequence (Q06520 1-285): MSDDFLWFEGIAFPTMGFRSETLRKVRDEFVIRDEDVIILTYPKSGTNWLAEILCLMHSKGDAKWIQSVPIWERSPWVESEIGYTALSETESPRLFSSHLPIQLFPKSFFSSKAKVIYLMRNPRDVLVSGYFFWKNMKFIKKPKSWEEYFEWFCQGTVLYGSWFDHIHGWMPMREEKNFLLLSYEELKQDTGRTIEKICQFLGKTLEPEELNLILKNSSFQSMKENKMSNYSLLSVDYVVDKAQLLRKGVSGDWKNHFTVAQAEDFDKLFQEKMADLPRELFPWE

TK6 cells = assay: MTT assay of cell growth in TK6 cells; type: cell-based, human; details: read-out: IC50 on cell growth
SULT1A1 [2] = target: T2, SULT1A1 (Homo sapiens, UniProt P50225); assay: Sulfonation by cytosol of HEK293/SULT1A1-overexpressing cells; details: SULT1A1 cytosol; 1 h at 37 °C; mean ± s.d., three experiments
[3] = Sulfonation activity of pooled human liver cytosols; details: Human liver cytosol; 1 h at 37 °C; mean ± s.d., three experiments
SULT1C4 [4] = target: T3, SULT1C4 (Homo sapiens, UniProt O75897); assay: Sulfonation by cytosol of HEK293/SULT1C4-overexpressing cells; details: SULT1C4 cytosol; 1 h at 37 °C; mean ± s.d., three experiments
TK6/SULT vector cells [5] = details: 45 µM
SULT1E1 [6] = target: T4, SULT1E1 (Homo sapiens, UniProt P49888); assay: Sulfonation by cytosol of HEK293/SULT1E1-overexpressing cells; details: SULT1E1 cytosol; 1 h at 37 °C; mean ± s.d., three experiments
T4 sequence (P49888 1-294): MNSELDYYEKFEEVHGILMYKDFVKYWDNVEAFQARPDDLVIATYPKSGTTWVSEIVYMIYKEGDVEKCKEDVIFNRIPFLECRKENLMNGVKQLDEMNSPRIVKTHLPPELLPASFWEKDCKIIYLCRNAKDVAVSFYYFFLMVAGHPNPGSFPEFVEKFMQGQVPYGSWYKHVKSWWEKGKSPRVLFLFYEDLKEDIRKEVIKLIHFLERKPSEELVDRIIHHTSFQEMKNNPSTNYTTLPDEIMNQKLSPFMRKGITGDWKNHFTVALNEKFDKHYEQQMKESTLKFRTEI

TK6/SULT2A1 cells [7] = details: 90 µM
TK6/SULT vector cells [8] = type: cell-based, human
SULT1E1 [9] = target: T4, SULT1E1
TK6/SULT2A1 cells [10] = assay: MTT assay of cell growth in TK6/SULT2A1 cells; details: for IC50: read-out: IC50 on cell growth
SULT1C4 [11] = target: T3, SULT1C4
TK6/SULT vector cells [12] = assay: MTT assay of cell growth in TK6/SULT vector cells; details: for IC50: read-out: IC50 on cell growth
SULT1A1 [13] = target: T2, SULT1A1
[14] = Stability of 12-sulfoxynevirapine in buffer by reversed-phase HPLC; type: physicochemical; details: up to 2 months
[15] = test system: immortalized normal liver THLE2 cells; details: 48 h exposure, ref [30]; cited from earlier work
[16] = test system: human hepatoma HepG2 cells; details: 48 h exposure, ref [30]; cited from earlier work
SULT1E1 [17] = target: T4, SULT1E1; assay: Inhibition of SULT1E1-catalyzed sulfonation of triclosan; type: biochemical; details: 10 μM pentachlorophenol, preliminary experiments
SULT2A1 [18] = target: T1, SULT2A1; assay: Inhibition of SULT2A1-catalyzed sulfonation of triclosan; type: biochemical; details: 10 μM pentachlorophenol, preliminary experiments
SULT4A1 = target: T5, SULT4A1 (Homo sapiens, UniProt Q9BR01); assay: Sulfonation by cytosol of HEK293/SULT4A1-overexpressing cells; type: in vitro ADME; details: 250 μM [14C]triclosan, 0.5 mg cytosolic protein, 500 μM PAPS, pH 7.2, 37 °C, 2 h
T5 sequence (Q9BR01 1-284): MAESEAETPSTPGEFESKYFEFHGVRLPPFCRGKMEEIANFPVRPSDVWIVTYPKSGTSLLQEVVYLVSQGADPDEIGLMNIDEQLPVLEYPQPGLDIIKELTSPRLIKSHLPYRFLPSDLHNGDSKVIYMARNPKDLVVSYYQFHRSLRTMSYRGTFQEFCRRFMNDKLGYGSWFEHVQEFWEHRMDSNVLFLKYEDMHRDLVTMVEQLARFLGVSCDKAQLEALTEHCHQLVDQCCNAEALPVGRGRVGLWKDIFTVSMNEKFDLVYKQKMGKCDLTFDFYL

SULT1C2 = SULT1C2 (Homo sapiens, UniProt O00338); assay: Sulfonation by cytosol of HEK293/SULT1C2-overexpressing cells; type: in vitro ADME; details: 250 μM [14C]triclosan, 0.5 mg cytosolic protein, 500 μM PAPS, pH 7.2, 37 °C, 2 h
SULT2B1 = target: T6, SULT2B1 (Homo sapiens, UniProt O00204); assay: Sulfonation by cytosol of HEK293/SULT2B1-overexpressing cells; type: in vitro ADME; details: 250 μM [14C]triclosan, 0.5 mg cytosolic protein, 500 μM PAPS, pH 7.2, 37 °C, 2 h
T6 sequence (O00204 1-365): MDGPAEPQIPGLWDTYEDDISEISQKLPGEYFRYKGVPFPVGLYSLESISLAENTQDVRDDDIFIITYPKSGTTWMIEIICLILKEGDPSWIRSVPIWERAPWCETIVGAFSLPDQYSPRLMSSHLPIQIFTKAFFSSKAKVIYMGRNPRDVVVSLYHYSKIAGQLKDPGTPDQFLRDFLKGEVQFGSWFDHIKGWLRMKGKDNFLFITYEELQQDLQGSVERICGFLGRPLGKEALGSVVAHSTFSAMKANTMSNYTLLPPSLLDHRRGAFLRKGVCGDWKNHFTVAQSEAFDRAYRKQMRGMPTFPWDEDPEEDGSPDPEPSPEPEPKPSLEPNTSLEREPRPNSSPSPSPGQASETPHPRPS

SULT6B1 = target: T7, SULT6B1 (Homo sapiens, UniProt Q6IMI4); assay: Sulfonation by cytosol of HEK293/SULT6B1-overexpressing cells; type: in vitro ADME; details: 250 μM [14C]triclosan, 0.5 mg cytosolic protein, 500 μM PAPS, pH 7.2, 37 °C, 2 h
T7 sequence (Q6IMI4 1-303): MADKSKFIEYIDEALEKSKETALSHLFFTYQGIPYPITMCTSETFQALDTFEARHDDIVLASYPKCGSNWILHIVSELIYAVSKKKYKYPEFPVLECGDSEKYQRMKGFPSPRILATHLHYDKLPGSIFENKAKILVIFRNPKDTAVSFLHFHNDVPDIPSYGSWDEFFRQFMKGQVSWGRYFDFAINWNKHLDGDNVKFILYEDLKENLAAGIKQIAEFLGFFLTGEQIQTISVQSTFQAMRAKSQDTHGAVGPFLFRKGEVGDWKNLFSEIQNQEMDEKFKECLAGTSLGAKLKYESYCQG

[19] = target: T8, cytosols from TK6/SULT2A1 cells (Homo sapiens, UniProt Q06520); assay: Sulfonation of triclosan by cytosols from TK6/SULT2A1 cells; type: in vitro ADME; details: not in TK6 and TK6/SULT vector cytosols
T8 sequence (Q06520 1-285): T1 sequence (Q06520 1-285)

T2 sequence (P50225 whole entry): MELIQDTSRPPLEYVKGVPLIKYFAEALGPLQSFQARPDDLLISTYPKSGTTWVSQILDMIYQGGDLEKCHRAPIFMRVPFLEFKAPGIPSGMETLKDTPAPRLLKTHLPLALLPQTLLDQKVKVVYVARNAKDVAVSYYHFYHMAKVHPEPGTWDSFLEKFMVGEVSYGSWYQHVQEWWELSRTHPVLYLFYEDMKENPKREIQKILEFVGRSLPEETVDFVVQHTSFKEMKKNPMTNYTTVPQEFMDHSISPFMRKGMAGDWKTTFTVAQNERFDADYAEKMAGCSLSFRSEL
T3 sequence (O75897 whole entry): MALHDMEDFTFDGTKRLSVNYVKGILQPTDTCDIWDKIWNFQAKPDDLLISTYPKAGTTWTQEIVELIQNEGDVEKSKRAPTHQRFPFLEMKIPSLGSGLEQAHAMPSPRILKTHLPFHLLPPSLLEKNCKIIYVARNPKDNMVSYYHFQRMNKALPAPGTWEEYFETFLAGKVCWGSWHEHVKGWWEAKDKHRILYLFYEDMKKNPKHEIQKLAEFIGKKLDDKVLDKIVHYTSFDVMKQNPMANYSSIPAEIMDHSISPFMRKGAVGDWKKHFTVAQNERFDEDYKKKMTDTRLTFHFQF
Sequence of SULT1C2 (O00338 whole entry): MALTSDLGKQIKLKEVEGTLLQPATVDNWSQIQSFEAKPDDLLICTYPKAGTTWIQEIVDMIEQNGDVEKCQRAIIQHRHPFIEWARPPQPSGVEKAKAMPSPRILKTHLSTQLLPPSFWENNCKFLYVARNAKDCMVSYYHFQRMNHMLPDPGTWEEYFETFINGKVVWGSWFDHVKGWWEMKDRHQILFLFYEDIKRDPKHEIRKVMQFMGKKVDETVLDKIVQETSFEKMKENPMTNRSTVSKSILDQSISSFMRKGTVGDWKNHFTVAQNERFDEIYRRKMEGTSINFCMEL

O=C1Nc2c(CO)ccnc2N(C2CC2)c2ncccc21 [12-Hydroxynevirapine]
Km (SULT2A1 [1]): 545 ± 68.5 µM
IC50 (TK6 cells; TK6 cells, 48 h exposure, MTT assay): 42.6 µM
Vmax (SULT1A1 [2]): 71.2 ± 2.0 pmol min^−1 cytosolic protein mg^−1
Vmax [3]: 71.0 ± 4.5 pmol min^−1 cytosolic protein mg^−1
Vmax (SULT1C4 [4]): 56.0 ± 2.2 pmol min^−1 cytosolic protein mg^−1
Cell viability (TK6/SULT vector cells [5]): approximately 50%
Vmax (SULT1E1 [6]): 71.0 ± 2.8 pmol min^−1 cytosolic protein mg^−1
Cell viability (TK6/SULT2A1 cells [7]): approximately 50%
Formation of 12-sulfoxynevirapine in treated cells (TK6/SULT vector cells [8]): not detected
Km (SULT1E1 [9]): 216 ± 34 µM
IC50 (TK6/SULT2A1 cells [10]; TK6/SULT2A1 cells, 48 h exposure, MTT assay): 89.9 µM
Km (SULT1C4 [11]): 260 ± 38.9 µM
IC50 (TK6/SULT vector cells [12]; TK6/SULT vector cells, 48 h exposure, MTT assay): 45.1 µM
Km (SULT1A1 [13]): 787 ± 62.2 µM

O=C1Nc2c(COS(=O)(=O)O)ccnc2N(C2CC2)c2ncccc21 [12-Sulfoxynevirapine]
Stability in buffer ([14]; 50 mM Bis-Tris, pH 7.1, room temperature): stable
Stability in buffer ([14]; 100 mM sodium phosphate, pH 7.2, room temperature): stable

Cc1ccnc2c1NC(=O)c1cccnc1N2C1CC1 [Nevirapine, 11-cyclopropyl-5,11-dihydro-4-methyl-6H-dipyrido [3,2-b:2′,3′-e][1, 4]diazepin-6-one]
IC50 (TK6 cells; Homo sapiens, TK6, 48 h): ~130 µM
Concentration that inhibited cell growth [15]: approximately 1.0 mM
Concentration that inhibited cell growth [16]: approximately 1.0 mM
IC50 (TK6/SULT2A1 cells [10]; Homo sapiens, 48 h): ~130 µM
IC50 (TK6/SULT vector cells [12]; Homo sapiens, 48 h): ~130 µM

Oc1c(Cl)c(Cl)c(Cl)c(Cl)c1Cl [Pentachlorophenol, pentachlorophenol]
Triclosan being sulfated in the presence of inhibitor (SULT1E1 [17]): 44%
Triclosan being sulfated in the presence of inhibitor (SULT2A1 [18]): 12%
Cytotoxicity of the SULT substrate alone (TK6/SULT2A1 cells [10]; TK6/SULT2A1 cells, tested concentration (DHEA 5 μM, pentachlorophenol 10 μM), 48 h, MTT): not cytotoxic
Cytotoxicity of the SULT substrate alone (TK6/SULT vector cells [12]; TK6/SULT vector cells, tested concentration (DHEA 5 μM, pentachlorophenol 10 μM), 48 h, MTT): not cytotoxic

Oc1cc(Cl)ccc1Oc1ccc(Cl)cc1Cl [Triclosan, triclosan]
Sulfonation of triclosan (SULT4A1): 50.4 ± 0.6 pmol min^−1 mg cytosolic protein^−1
Sulfonation of triclosan (SULT1C2): 28.5 ± 0.2 pmol min^−1 mg cytosolic protein^−1
Sulfonation of triclosan (SULT2B1): 46.6 ± 1.9 pmol min^−1 mg cytosolic protein^−1
Sulfonation of triclosan (SULT6B1): 33.8 ± 1.0 pmol min^−1 mg cytosolic protein^−1
Sulfonation activity towards triclosan [19]: showed sulfonation activity
